Measurements: patent US20190256499A1, “SUBSTITUTED QUINOXALINE DERIVATIVES AS INHIBITORS OF PFKFB” (priority 2016, published 2019)
In brackets after ≈: the same amount, converted by molar mass.

Tests used:
[1] = biological target: T1, Human recombinant His-tagged PFKFB3 (Homo sapiens, UniProt Q16875); test: PFKFB3 IC50 determination assay (modified ADP-Glo in vitro kinase assay); format: biochemical; details: human recombinant PFKFB3 25 nM, ATP 20 μM, fructose-6-phosphate 2 μM, 2 h, rt; read-out: PFKFB IC50
T1 construct: His; made in house
Protocol: In vitro kinase assay used to determine IC50 values for tested inhibitors is based on a modified ADP-Glo™ system (Promega) and consists of two parts:
1. Kinase reaction—performed in optimized conditions. At this step PFKFB3 phosphorylates its substrate fructose-6-phosphate using ATP as a source of phosphate to produce fructose-2,6-bisphosphate and ADP. Reaction is performed at Km values for ATP and substrate using optimized buffer composition and time of the reaction. Human recombinant His-tagged PFKFB3 (PFKFB3 BATCH II SEC) with confirmed activity is produced and purified in-house. 2. Detection of ADP as a product of the reaction using ADP-Glo™ system. This part is conducted by using the commercially available kit ADP-Glo™ Kinase Assay (Promega, cat. No# V9103) according to manufacturer's instruction, modified by 5× dilutions of assay reagents (both ADP-Glo™ Reagent and Kinase Detection Solution). Reproducibility and reliability of this modification is confirmed in an optimization process.
Test compounds are dissolved in DMSO and then transferred to the V-bottom 96-well plate. For IC50 determination ten 10× serial dilutions starting from 100 μM are prepared.
Two mixes are prepared on ice: Mix 1—containing appropriate kinase amount in 2× reaction buffer (100 mM TRIS pH 8.0) and Mix 2—containing 2.31× concentrated substrate (Fructose-6-phosphate) and ATP in MilliQ water. 15 μL per well of Mix 1 is transferred to assay wells of 96-well white plate. Next, 2 μl of 15× concentrated test compound in DMSO is added to Mix 1 for 20 min pre-incubation, followed by addition of Mix 2 (13 μl/well). Total reaction volume is 30 μL per well. Samples are tested in duplicates. Final concentration of DMSO in the reaction is 6.7%. Conditions needed for performing PFKFB3 (PFKFB3 BATCH II SEC) in vitro kinase assay are given below:
This protocol is based on Technical Bulletin, ADP-Glo™ Kinase Assay (Promega) and is adapted to 96-well plate containing 30 μL reaction mixture:
30 μL of 5× diluted ADP-Glo™ Reagent is added to each well of 96-well plate containing 30 μL of reaction mixture. The plate is incubated for 90 minutes on a shaker at rt. 60 μL of 5× diluted Kinase Detection Solution is added to each well of 96-well plate containing 60 μL of the solution (ratio of kinase reaction volume to ADP-Glo™ Reagent volume to Kinase Detection Solution volume is maintained at 1:1:2). Plate is incubated for 40 minutes on a shaker at rt, protected from light. Luminescence is measured in the plate reader Synergy 2 (BioTek).
Luminescent readouts for compounds tested in 10 concentrations (routinely from 100 μM to […], […] serial dilutions) in duplicates, as well as for positive control, are first normalized to no-substrate negative control by its subtraction. In the next step, % of normalized positive control is calculated for each data point and plotted against test compound concentration:
% of control—percent of positive control normalized to no-substrate negative control Lumcpd—luminescence of test compound Lumneg—luminescence of no-substrate negative control Lumpos—luminescence of positive control
IC50 parameter is determined by the GraphPad Prism 5.0 software [log(inhibitor) vs. response—Variable slope (four parameters)].

[2] = Microsomal stability (intrinsic clearance), human liver microsomes; format: in vitro ADME; set-up: microsomal CLint: dose or concentration left out as unconfirmed; details: human, liver microsomes, pH 7.4, human liver microsomes
From the text: A microsomal stability assay is used to measure in vitro clearance (Clint). The assay involves measuring the rate of disappearance of a compound due to its intrinsic attitude to be metabolized (“intrinsic” meaning that the disappearance is not affected by other properties like permeability, binding etc. that play a role when quantifying in vivo clearance). The microsomal stability (intrinsic clearance, Clint) and thus metabolic stability is generally given as μl/min/mg protein. It can be visualized as the volume of solution that 1 mg of microsomes is able to clear of the compound in one minute.
A Tecan Genesis workstation (RSP 150/8) was used for to perform the microsomal incubations. Analysis was carried out using a Waters ACQUITY UPLC system coupled to an ABSciex API3000 mass spectrometer. Data analysis was performed using Assay Explorer (Symyx).
Mobile phases: A=0.1% formic acid in water; B=acetonitrile
Flow rate: 0.750 mL/min; Detection: ESI, MRM; Injection: 10 μL; Column temperature: 50° C.
Potassium phosphate buffer: 0.05 M potassium phosphate buffer pH 7.4 containing 1 mM MgCl2 NADPH (nicotinamide adenine dinucleotide phosphate): 22.5 mg NADPH-Na4 in 1.8 ml potassium phosphate buffer Acetonitrile: 50 Vol % acetonitrile (1 volume acetonitrile, 1 volume water) DMSO: 20 Vol % DMSO in water Stock solution of 20 mg/ml human or mouse liver microsomes (protein)/ml in phosphate buffer Stock solution of 10 mM compound in 100% DMSO

[3] = Solubility PBS (thermodynamic solubility, shake flask method); format: physicochemical; details: phosphate buffer (PBS), aqueous buffer, thermodynamic from solid, PBS pH 7.4, 24 hours at 37° C.
Protocol: The method involves dissolving the test compound in a solvent at a constant temperature followed by HPLC determination of the concentration of the solute in the solution, which must not contain any undissolved particles.
Phosphate Buffer pH 7.4 is prepared by using 50 mL monobasic potassium phosphate solution 0.2 M in a 200-mL volumetric flask and adding 39.1 mL of sodium hydroxide solution 0.2 M and then adding water to volume.
Standard solution is prepared by weighing in a standard compound (about 1 mg) into a flask and dissolved completely in a solution of acetonitrile/methanol (1:1; V/V).
The sample of the test compound (about 2-3 mg) is weighed into a Uniprep® syringeless filter (5 mL; 0.45 μm), the 2 mL of solvent is added and the mixture is agitated for 24 hours at 37° C. The suspension is filtered after 24 hours and the concentration of dissolved substance is determined by HPLC. The result is stated as >x μg/mL, calculated from the sample weight taken and the volume of solvent used
Eluent A: Ultrapure water/Formic acid GR for analysis (999:1, V/V) Eluent B: Acetonitrile/Formic acid GR for analysis (999:1, V/V)
The result is determined quantitatively based on the external standard method through integration of the peak areas with reference to the figures obtained for the standard substance.
L[μg/mL]=a(A)*c(S)*F(A)/a(S)*F(S) Calculation: • a (A)=peak area for analyte/mL • a (S)=peak area for standard/mL • c (S)=concentration of standard (μg/mL) • F (A)=dilution factor for analyte • F (S)=dilution factor for standard

T1 sequence (Q16875 whole entry): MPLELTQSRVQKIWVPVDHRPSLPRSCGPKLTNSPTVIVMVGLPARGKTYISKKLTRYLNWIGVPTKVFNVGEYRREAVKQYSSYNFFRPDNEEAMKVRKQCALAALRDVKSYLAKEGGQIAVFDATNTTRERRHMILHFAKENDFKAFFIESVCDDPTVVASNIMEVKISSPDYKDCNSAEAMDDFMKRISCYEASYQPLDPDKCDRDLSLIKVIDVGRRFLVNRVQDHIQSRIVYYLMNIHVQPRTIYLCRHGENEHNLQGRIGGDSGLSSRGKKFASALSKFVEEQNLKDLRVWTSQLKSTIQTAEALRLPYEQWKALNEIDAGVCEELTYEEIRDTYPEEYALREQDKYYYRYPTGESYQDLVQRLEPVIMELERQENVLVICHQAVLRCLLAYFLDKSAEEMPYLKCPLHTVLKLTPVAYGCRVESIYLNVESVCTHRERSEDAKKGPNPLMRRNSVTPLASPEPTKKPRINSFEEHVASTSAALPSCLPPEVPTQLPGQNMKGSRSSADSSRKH

| SMILES | IC50 [1] | microsomal CLint [2] | solubility at 24 h [3] |
| --- | --- | --- | --- |
| Cn1ccc2ccc(-c3cc(NC(c4cccnc4)c4ccc(=O)[nH]n4)cc4nccnc34)cc21 (single isomer, unassigned) [Example 2] | 28 nM | 78 µL/min/mg | 10 µg/mL (≈ 21.8 µM) |
| COc1ccc([C@@H](Nc2cc(-c3ccc4ccn(C)c4c3)c3nccnc3c2)c2cccnc2)nn1 (single isomer, unassigned) [Example 5] | 8 nM | 264 µL/min/mg | 4 µg/mL (≈ 8.45 µM) |
| Cn1cc([C@H](Nc2cc(-c3ccc4ccn(C)c4c3)c3nccnc3c2)c2cnnn2C)cn1 (single isomer, unassigned) [Example 8] | 5.2 nM | 50 µL/min/mg | 80 µg/mL (≈ 178 µM) |
| Cn1cc([C@H](Nc2cc(-c3ccc4ccn(C)c4c3)c3nccnc3c2)c2cncn2C)cn1 (single isomer, unassigned) [Example 11] | 14 nM | 130 µL/min/mg | 4 µg/mL (≈ 8.92 µM) |
| COc1ccc([C@@H](Nc2cc(-c3ccc4ccn(C)c4c3)c3nccnc3c2)c2cccnc2)cn1 [Comparative Example 4, [(S)-(6-methoxy-pyridin-3-yl)-pyridin-3-yl-methyl]-[8-(1-methyl-1H-indol-6-yl)-quinoxalin-6-yl]-amine, reference compound] | 9.9 nM | 214 µL/min/mg | 1 µg/mL (≈ 2.12 µM) |
